Several values for one entry are separate records, joined by “and”; a condition that tells them apart may be missing. Equal values may be shown once. Read-outs that look alike come from different tables or passages of the source.
Columns and labels:
delta opioid receptor = molecular target: T1, delta opioid receptor (Rattus norvegicus, UniProt P33533); experiment: Rat brain delta opioid receptor binding assay; details: rDOR (Ki, nM): Rat delta opioid receptor binding constant, rat forebrain membranes; [3H]DPDPE or [3H]naltrindole, 25° C., 2.5 h
T1 construct: the forebrains were homogenized in Tris buffer in a Teflon®-glass homogenizer; from tissue; host or cells: forebrain of male Wistar rats (particulate membrane preparation)
Procedure: Rat Brain Delta Opioid Receptor Binding Assay
(§1) Procedure: Male, Wistar rats (150-250 g, VAF, Charles River, Kingston, N.Y.) were killed by CO2, and their brains removed and placed immediately in ice cold Tris HCl buffer (50 mM, pH 7.4). The forebrains were separated from the remainder of the brain by a coronal transection, beginning dorsally at the colliculi and passing ventrally through the midbrain-pontine junction. After dissection, the forebrains were homogenized in Tris buffer in a Teflon®-glass homogenizer. The homogenate was diluted to a concentration of 1 g of forebrain tissue per 80 mL Tris and centrifuged at 39,000×g for 10 min. The pellet was resuspended in the same volume of Tris buffer containing 5 mM MgCl2 with several brief pulses from a Polytron homogenizer. This particulate preparation was used for the delta opioid binding assays.
(§2) Analysis: The data from the scintillation counter were used to calculate either the % inhibition compared to control binding (when only a single concentration of test compound was evaluated) or a Ki value (when a range of concentrations was tested). Percent inhibition was calculated as: [(total dpm−test compound dpm)/(total dpm−nonspecific dpm)]*100. Kd and Ki values were calculated using GraphPad PRISM data analysis program.

mu opioid receptor = molecular target: T2, mu opioid receptor (Rattus norvegicus, UniProt P33535); experiment: Rat brain mu opioid receptor binding assay; details: rMOR (Ki, nM): Rat mu opioid receptor binding constant, rat forebrain membranes; [3H]DAMGO, 25° C., 2.5 h
T2 construct: the forebrains were homogenized in Tris buffer in a Teflon®-glass homogenizer; from tissue; host or cells: forebrain of male Wistar rats (particulate membrane preparation)
Procedure: Rat Brain Mu Opioid Receptor Binding Assay
as §1
as §2, with “concentrations” for “concentrations was”

[1] = molecular target: T3, delta opioid receptor (NG108-15 cell membranes) (Mus musculus, UniProt P32300); experiment: [35S]GTPγS binding assay in NG108-15 cell membranes (delta opioid); type: biochemical; details: for delta GTPγS binding Rel Eff: value in parentheses
T3 construct: NG108-15 cell membranes were purchased from Applied Cell Sciences (Rockville, Md.); host or cells: NG108-15 cell membranes (purchased)
Procedure: Functional Assay: [^35S]GTPγS Binding Assay in NG108-15 Cell Membranes (Delta Opioid)
Methods: NG108-15 cell membranes were purchased from Applied Cell Sciences (Rockville, Md.). A sample (8 mg/mL) of membrane protein suspended in 10 mM TRIS-HCl pH 7.2, 2 mM EDTA, 10% sucrose. Membranes were maintained at 4-8° C. A 1 mL volume of membranes was added into 10 mL cold binding assay buffer. The assay buffer contained 50 mM Tris, pH 7.6, 5 mM MgCl2, 100 mM NaCl, 1 mM DTT and 1 mM EGTA. The membrane suspension was homogenized twice with a Polytron, and centrifuged at 3000 rpm for 10 min. The supernatant was then centrifuged at 18,000 rpm for 20 min. Ten mL assay buffer was added into the pellet containing tube. The pellet and buffer were mixed with a Polytron.
Incubation procedure: The pellet membranes (75 μg/mL) were preincubated with SPA (10 mg/mL) at 25° C. for 45 min in the assay buffer. The SPA (5 mg/mL) coupled with membranes (37.5 μg/mL) was then incubated with 0.1 nM [^35S]GTPγS in the same Tris buffer containing 100 μM GDP in total volume of 200 μL. Increasing concentrations of receptor agonists were used to stimulate [^35S]-GTPγS binding. The basal binding was tested in the absence of agonists and non-specific binding was tested in the presence of 10 μM unlabeled GTPγS. The data were analyzed on a Packard Top Count.
% of Basal=(stimulated−non specific)*100/(basal−non specific).
(§3) EC50 values were calculated using GraphPad Prism.

[2] = molecular target: T4, hMOR (CHO-hMOR cell membranes) (Homo sapiens, UniProt P35372); experiment: [35S]GTPγS binding assay in CHO-hMOR cell membranes; type: biochemical; details: for mu GTPγS binding Rel Eff: value in parentheses
T4 construct: host or cells: CHO cells expressing hMOR (purchased membranes)
Procedure: Functional Assay: [^35S]GTPγS Binding Assays in CHO-hMOR Cell Membranes
Methods: CHO-hMOR cell membranes were purchased from Receptor Biology, Inc. (Baltimore, Md.). About 10 mg/mL of membrane protein was suspended in 10 mM TRIS-HCl pH 7.2, 2 mM EDTA, 10% sucrose, and the suspension kept on ice. A 1 mL volume of membranes was added to 15 mL cold binding assay buffer containing 50 mM HEPES, pH 7.6, 5 mM MgCl2, 100 mM NaCl, 1 mM DTT and 1 mM EDTA. The membrane suspension was homogenized with a Polytron and centrifuged at 3,000 rpm for 10 min. The supernatant was then centrifuged at 18,000 rpm for 20 min. The pellet was resuspended in 10 mL assay buffer with a Polytron. The membranes were preincubated with wheat germ agglutinin coated SPA beads (Amersham) at 25° C. for 45 min in the assay buffer. The SPA bead (5 mg/mL) coupled membranes (10 μg/mL) were then incubated with 0.5 nM [^35S]GTPγS in the assay buffer. […] A range of concentrations of receptor agonist was used to stimulate [^35S]GTPγS binding. Both basal and non-specific binding was tested in the absence of agonist; non-specific binding determination included 10 μM unlabeled GTPγS.
Compounds were tested for function as antagonists by evaluating their potential to inhibit agonist-stimulated GTPγS binding. Radioactivity was quantified on a Packard TopCount. The following parameters were calculated:
as §3

[3] = read-out: delta GTPγS binding EC50

T1 sequence (P33533 whole entry): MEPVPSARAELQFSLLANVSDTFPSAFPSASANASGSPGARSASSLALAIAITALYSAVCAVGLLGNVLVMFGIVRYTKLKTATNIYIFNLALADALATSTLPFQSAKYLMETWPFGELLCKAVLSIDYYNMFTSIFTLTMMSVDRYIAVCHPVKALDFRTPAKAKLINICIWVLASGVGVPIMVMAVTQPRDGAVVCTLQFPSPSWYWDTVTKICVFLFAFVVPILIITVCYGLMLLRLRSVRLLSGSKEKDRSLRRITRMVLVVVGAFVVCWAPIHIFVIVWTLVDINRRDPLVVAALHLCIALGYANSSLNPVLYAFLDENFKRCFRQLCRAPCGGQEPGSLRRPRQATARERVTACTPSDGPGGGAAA
T2 sequence (P33535 whole entry): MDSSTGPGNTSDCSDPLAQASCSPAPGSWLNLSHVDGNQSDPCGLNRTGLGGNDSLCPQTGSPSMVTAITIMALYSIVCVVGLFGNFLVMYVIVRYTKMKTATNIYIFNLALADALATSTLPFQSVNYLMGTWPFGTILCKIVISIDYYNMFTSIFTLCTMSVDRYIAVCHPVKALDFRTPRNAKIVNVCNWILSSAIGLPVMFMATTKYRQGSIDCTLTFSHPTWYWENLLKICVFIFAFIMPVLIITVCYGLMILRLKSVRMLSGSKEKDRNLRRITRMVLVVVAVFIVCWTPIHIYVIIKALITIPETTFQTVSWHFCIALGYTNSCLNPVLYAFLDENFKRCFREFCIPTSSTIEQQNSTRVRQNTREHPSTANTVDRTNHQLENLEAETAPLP
T3 sequence (P32300 whole entry): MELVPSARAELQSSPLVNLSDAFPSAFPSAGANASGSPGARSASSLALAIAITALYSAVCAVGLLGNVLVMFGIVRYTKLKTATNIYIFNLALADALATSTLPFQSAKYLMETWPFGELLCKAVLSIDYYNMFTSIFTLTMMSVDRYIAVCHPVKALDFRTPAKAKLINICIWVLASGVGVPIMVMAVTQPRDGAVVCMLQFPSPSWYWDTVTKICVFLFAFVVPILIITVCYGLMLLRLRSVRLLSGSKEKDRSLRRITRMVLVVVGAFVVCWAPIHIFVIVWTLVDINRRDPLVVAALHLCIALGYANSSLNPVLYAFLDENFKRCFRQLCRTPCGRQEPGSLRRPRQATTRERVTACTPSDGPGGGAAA
T4 sequence (P35372 whole entry): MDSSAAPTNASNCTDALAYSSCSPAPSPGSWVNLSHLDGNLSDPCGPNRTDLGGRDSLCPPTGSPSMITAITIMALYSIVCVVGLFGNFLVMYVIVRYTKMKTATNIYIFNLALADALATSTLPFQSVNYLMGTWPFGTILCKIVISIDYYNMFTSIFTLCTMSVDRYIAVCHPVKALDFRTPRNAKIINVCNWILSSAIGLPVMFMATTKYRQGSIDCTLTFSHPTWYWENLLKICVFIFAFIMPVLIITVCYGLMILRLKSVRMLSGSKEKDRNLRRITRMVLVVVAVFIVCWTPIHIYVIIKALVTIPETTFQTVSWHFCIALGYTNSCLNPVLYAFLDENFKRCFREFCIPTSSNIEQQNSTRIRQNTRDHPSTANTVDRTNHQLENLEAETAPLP

Oc1cccc2c1Oc1ccccc1C2=C1CC2CCC(C1)N2 (racemic) [Cpd 2, 9-(8-Aza-bicyclo[3.2.1]oct-3-ylidene)-9H-xanthen-4-ol] showed a Ki (delta opioid receptor) of 0.48 nM, a Ki (mu opioid receptor) of 7 nM and an EC50 ([1]; delta GTPγS binding EC50 (nM)) of 50.9 nM. For the same compound, the “delta GTPγS binding Rel Eff” value [1] was 0.67, the EC50 [2] was 382 nM and the “mu GTPγS binding Rel Eff” value ([2]; CHO-hMOR cell membranes) was 0.37.

Oc1cccc2c1Oc1ccccc1C2=C1CC2CCC(C1)N2 (single isomer, unassigned) [Cpd 8, 9-(8-Azabicyclo[3.2.1]oct-3-ylidene)-9H-xanthen-4-ol] gave a Ki (delta opioid receptor) of 0.56 nM, a Ki (mu opioid receptor) of 3.5 nM and an EC50 ([1]; delta GTPγS binding EC50 (nM)) of 9.98 nM. The EC50 [2] was 902 nM.

NC(=O)c1cccc2c1Oc1ccccc1C2=C1CC2CCC(C1)N2 (single isomer, unassigned) [Cpd 37, 9-(8-Azabicyclo[3.2.1]oct-3-ylidene)-9H-xanthene-4-carboxylic acid amide] was tested, and the Ki (delta opioid receptor) was 4 nM, the Ki (mu opioid receptor) was 29 nM and the EC50 ([1]; delta GTPγS binding EC50 (nM)) was 156 nM. It also gave an EC50 [2] of 878 nM.

For Oc1cccc2c1Oc1ccccc1C2=C1CC2CCC(C1)N2Cc1ccccc1 (single isomer, unassigned) [Cpd 45, 9-(8-Benzyl-8-azabicyclo[3.2.1]oct-3-ylidene)-9H-xanthen-4-ol], the Ki (delta opioid receptor) was 9.62 nM, the Ki (mu opioid receptor) was 11.4 nM and the EC50 ([1]; delta GTPγS binding EC50 (nM)) was 1420 nM.

For Oc1cccc2c1Oc1ccccc1C2=C1CC2CCC(C1)N2Cc1ccccc1 (single isomer, unassigned) [Cpd 46, 9-(8-Benzyl-8-azabicyclo[3.2.1]oct-3-ylidene)-9H-xanthen-4-ol], the Ki (delta opioid receptor) was 0.03 nM, the Ki (mu opioid receptor) was 0.19 nM and the EC50 [1, 3] was 10.2 nM.

Compound O=C(Nc1ccccc1)c1cccc2c1Oc1ccccc1C2=C1CC2CCC(C1)N2 (single isomer, unassigned) [Cpd 48, 9-(8-Azabicyclo[3.2.1]oct-3-ylidene)-9H-xanthene-4-carboxylic acid phenylamide] has a Ki (delta opioid receptor) of 3.71 nM, a Ki (mu opioid receptor) of 3.58 nM and an EC50 [1, 3] of 101 nM.

For Oc1cccc2c1Oc1ccccc1C2=C1CC2CCC(C1)N2Cc1cccnc1 (single isomer, unassigned) [Cpd 50, 9-(8-Pyridin-3-ylmethyl-8-azabicyclo[3.2.1]oct-3-ylidene)-9H-xanthen-4-ol], the Ki (delta opioid receptor) was 0.08 nM, the Ki (mu opioid receptor) was 0.68 nM and the EC50 [1, 3] was 218 nM.

CN1C2CCC1CC(=C1c3ccccc3Oc3c(O)cccc31)C2 (single isomer, unassigned) [Cpd 51, 9-(8-Methyl-8-azabicyclo[3.2.1]oct-3-ylidene)-9H-xanthen-4-ol] gave a Ki (delta opioid receptor) of 11.2 nM, a Ki (mu opioid receptor) of 138 nM and an EC50 ([1]; delta GTPγS binding EC50 (nM)) of 59.2 nM.

O=C(NCCc1ccccc1)c1cccc2c1Oc1ccccc1C2=C1CC2CCC(C1)N2 (single isomer, unassigned) [Cpd 56, 9-(8-Azabicyclo[3.2.1]oct-3-ylidene)-9H-xanthene-4-carboxylic acid phenethylamide] was tested, and the Ki (delta opioid receptor) was 49.6 nM, the Ki (mu opioid receptor) was 6.96 nM and the EC50 [1, 3] was 40.1 nM.

In the case of Oc1cccc2c1Oc1ccccc1C2=C1CC2CCC(C1)N2Cc1ccoc1 (single isomer, unassigned) [Cpd 58, 9-(8-Furan-3-ylmethyl-8-azabicyclo[3.2.1]oct-3-ylidene)-9H-xanthen-4-ol], the Ki (delta opioid receptor) is reported as 0.1 nM, the Ki (mu opioid receptor) is reported as 0.45 nM and the EC50 [1, 3] is reported as 2.6 nM.

Work on NC(=O)c1cccc2c1Oc1ccccc1C2=C1CC2CCC(C1)N2 [Cpd 3, 9-(8-Aza-bicyclo[3.2.1]oct-3-ylidene)-9H-xanthene-4-carboxylic acid amide] yielded a Ki (delta opioid receptor) of 3.2 nM, a Ki (mu opioid receptor) of 29.4 nM and an EC50 ([1]; delta GTPγS binding EC50 (nM)) of 42 nM. For the same compound, the EC50 [2] was 3960 nM.

NC(=O)c1cccc2c1Oc1ccccc1C2=C1CC2CCC(C1)N2Cc1ccoc1 [Cpd 4, 9-(8-Furan-3-ylmethyl-8-azabicyclo[3.2.1]oct-3-ylidene)-9H-xanthene-4-carboxylic acid amide] showed a Ki (delta opioid receptor) of 2.3 nM, a Ki (mu opioid receptor) of 2.5 nM and an EC50 [1, 3] of 9.4 nM. The EC50 ([2]; CHO-hMOR cell membranes, read-out: mu GTPγS binding EC50) was 4040 nM.

For CNC(=O)c1cccc2c1Oc1ccccc1C2=C1CC2CCC(C1)N2 [Cpd 10, 9-(8-Azabicyclo[3.2.1]oct-3-ylidene)-9H-xanthene-4-carboxylic acid methylamide], the Ki (mu opioid receptor) was 27 nM and 51 nM, the EC50 ([1]; delta GTPγS binding EC50 (nM)) was 617 nM and the EC50 [2] was greater than 10000 nM.

With O=C(Nc1ccccc1)c1cccc2c1Oc1ccccc1C2=C1CC2CCC(C1)N2 [Cpd 12, 9-(8-Azabicyclo[3.2.1]oct-3-ylidene)-9H-xanthene-4-carboxylic acid phenylamide] the Ki (delta opioid receptor) was 272 nM and 67.9 nM, the Ki (mu opioid receptor) was 32 nM and the EC50 ([1]; delta GTPγS binding EC50 (nM)) was 30.3 nM. For the same compound, the “delta GTPγS binding Rel Eff” value [1] was 1.03, the EC50 [2] was 611 nM and the “mu GTPγS binding Rel Eff” value ([2]; CHO-hMOR cell membranes) was 0.96.

For O=C(NCc1ccccc1)c1cccc2c1Oc1ccccc1C2=C1CC2CCC(C1)N2 [Cpd 13, 9-(8-Azabicyclo[3.2.1]oct-3-ylidene)-9H-xanthene-4-carboxylic acid benzylamide], the Ki (mu opioid receptor) was 15 nM and 12.7 nM, the EC50 ([1]; delta GTPγS binding EC50 (nM)) was 5.68 nM and the “delta GTPγS binding Rel Eff” value [1] was 0.87. The EC50 [2] was 717 nM and the “mu GTPγS binding Rel Eff” value ([2]; CHO-hMOR cell membranes) was 0.67.

With O=C(NCCc1ccccc1)c1cccc2c1Oc1ccccc1C2=C1CC2CCC(C1)N2 [Cpd 14, 9-(8-Azabicyclo[3.2.1]oct-3-ylidene)-9H-xanthene-4-carboxylic acid phenethyl-amide] the Ki (mu opioid receptor) was 44 nM and 36.2 nM, the EC50 ([1]; delta GTPγS binding EC50 (nM)) was 10.4 nM and the “delta GTPγS binding Rel Eff” value [1] was 0.92. The EC50 [2] was 997 nM and the “mu GTPγS binding Rel Eff” value ([2]; CHO-hMOR cell membranes) was 0.54.

For Oc1cccc2c1Oc1ccccc1C2=C1CCNCC1 [Cpd 16, 9-Piperidin-4-ylidene-9H-xanthen-4-ol], the Ki (delta opioid receptor) was 15.1 nM, the Ki (mu opioid receptor) was 776 nM and the EC50 ([1]; delta GTPγS binding EC50 (nM)) was 964 nM.

CN1C2CCC1CC(=C1c3ccccc3Oc3c(O)cccc31)C2 [Cpd 19, 9-(8-Methyl-8-azabicyclo[3.2.1]oct-3-ylidene)-9H-xanthen-4-ol] showed a Ki (delta opioid receptor) of 28.3 nM, a Ki (mu opioid receptor) of 372 nM and an EC50 ([1]; delta GTPγS binding EC50 (nM)) of 768 nM. It also gave an EC50 [2] greater than 10000 nM.

For Oc1cccc2c1Oc1ccccc1C2=C1CC2CCCC(C1)N2 [Cpd 20, 9-(9-Azabicyclo[3.3.1]non-3-ylidene)-9H-xanthen-4-ol], the Ki (delta opioid receptor) was 20.2 nM, the Ki (mu opioid receptor) was 32.6 nM and the EC50 ([1]; delta GTPγS binding EC50 (nM)) was 180 nM. It also gave an EC50 [2] of 7080 nM.

With O=CNc1cccc2c1Oc1ccccc1C2=C1CC2CCC(C1)N2 [Cpd 44, N-[9-(8-Azabicyclo[3.2.1]oct-3-ylidene)-9H-xanthen-4-yl]-formamide] the Ki (delta opioid receptor) was 19.2 nM, the Ki (mu opioid receptor) was 45.2 nM and the EC50 ([1]; delta GTPγS binding EC50 (nM)) was 7.03 nM.

NC(=O)c1cccc2c1Sc1ccccc1C2=C1CC2CCC(C1)N2 [Cpd 63, 9-(8-Azabicyclo[3.2.1]oct-3-ylidene)-9H-thioxanthene-4-carboxylic acid amide] gave a Ki (delta opioid receptor) of 0.71 nM, a Ki (mu opioid receptor) of 3.31 nM and an EC50 ([1]; delta GTPγS binding EC50 (nM)) of 2.7 nM.

— US20090275610A1, “TRICYCLIC OPIOID MODULATORS” (priority 2005, published 2009)
